Patent US9023843B2, “Antimicrobial compounds and methods of making and using the same” (Melinta Therapeutics, Inc., priority 2009, dated 2015)

These compounds were tested on Eschericia coli strain ATCC25922 (assay: standard microdilution assay to determine minimum inhibitory concentrations (MICs)). Conditions: Escherichia coli, read-out: E. coli ATCC25922 MIC.
Type: cell-based
Protocol: Minimum inhibitory concentrations (MICs) are determined by the microdilution method, typically in a final volume of 100 microliters, according to protocols outlined by The Clinical and Laboratory Standards Institute [CLSI; formerly the National Committee for Clinical Laboratory Standards (NCCLS)]. See CLSI: Methods for dilution antimicrobial susceptibility tests for bacteria that grow aerobically; approved standard-fifth edition. Wayne, Pa.: NCCLS; 2000. The assays can be also be performed in microtiter trays according to conventional methodologies as published by the CLSI. See CLSI. Methods for Dilution Antimicrobial Susceptibility Tests for Bacteria That Grow Aerobically; Approved Standard-Seventh Edition. CLSI Document M7-A7 [ISBN 1-56238-587-9] CLSI, 940 West Valley Road, Suite 1400, Wayne Pa. 19087-1898 USA, 2006).
The compounds of the present invention were tested for antimicrobial activity. The compounds were run against Eschericia coli strain ATCC25922 using a standard microdilution assay to determine minimum inhibitory concentrations (MICs). […] A “N/A” means that data is unavailable. It will be recognized by one skilled in the art that the compounds can be assessed against other bacterial organisms and that the presentation of data for activity against Eschericia coli is illustrative and in no way is intended to limit the scope of the present invention. The compounds of the present invention can be assayed against a range of other microorganisms depending upon the performance activity desired to be gathered. Furthermore, the “+”, “−”, and “N/A” representation and the selection of a cutoff value of 16 micrograms/ml is also illustrative and in no way is intended to limit the scope of the present invention.

SMILES | MIC
O=C(CCN1CCNCC1)NC1CCC(n2cc3c(nc2=O)Nc2cc(C4CCNCC4)ccc2O3)CC1 (centres unmarked) [Compound 1192] | > 16 µg/mL
O=c1nc2c(cn1C1CCC(NCCCN3CCNCC3)CC1)Oc1ccc(C3CCNCC3)cc1N2 (centres unmarked) [Compound 1193] | > 16 µg/mL
Cc1ccc(CCCNC2CCC(n3cc4c(nc3=O)Nc3cc(C5CCNCC5)ccc3O4)CC2)o1 (centres unmarked) [Compound 1197] | > 16 µg/mL
Cc1ccc(CCCN(CCCc2ccc(C)o2)C2CCC(n3cc4c(nc3=O)Nc3cc(C5CCNCC5)ccc3O4)CC2)o1 (centres unmarked) [Compound 1198] | > 16 µg/mL
O=c1nc2c(cn1C1CCC(NCCCc3cnn[nH]3)CC1)Oc1ccc(C3CCNCC3)cc1N2 (centres unmarked) [Compound 1212] | > 16 µg/mL
O=C1OCCN1CCCNC1CCC(n2cc3c(nc2=O)Nc2cc(C4CCNCC4)ccc2O3)CC1 (centres unmarked) [Compound 1213] | > 16 µg/mL
O=c1nc2c(cn1C1CCC(NCCCN3CCCCC3)CC1)Oc1ccc(C3CCNCC3)cc1N2 (centres unmarked) [Compound 1234] | < 16 µg/mL
NCCCNC(=O)C1CCC(n2cc3c(nc2=O)Nc2cc(C4CCNCC4)ccc2O3)CC1 (centres unmarked) [Compound 1235] | < 16 µg/mL
N=C(N)NCCCNC(=O)C1CCC(n2cc3c(nc2=O)Nc2cc(C4CCNCC4)ccc2O3)CC1 (centres unmarked) [Compound 1236] | < 16 µg/mL
N=C(N)NCCNC(=O)C1CCC(n2cc3c(nc2=O)Nc2cc(C4CCNCC4)ccc2O3)CC1 (centres unmarked) [Compound 1237] | < 16 µg/mL
NCCNC(=O)C1CCC(n2cc3c(nc2=O)Nc2cc(C4CCNCC4)ccc2O3)CC1 (centres unmarked) [Compound 1238] | < 16 µg/mL
NCCCN(CCCN)C1CCC(n2cc3c(nc2=O)Nc2cc(C4CCNCC4)ccc2O3)CC1 (centres unmarked) [Compound 1244] | < 16 µg/mL
NCCCNCC1CCC(n2cc3c(nc2=O)Nc2cc(C4CCNCC4)ccc2O3)CC1 (centres unmarked) [Compound 1269] | < 16 µg/mL
NC1CCC(Cn2cc3c(nc2=O)Nc2cc(C4CCNCC4)ccc2O3)CC1 (centres unmarked) [Compound 1368] | > 16 µg/mL
NCC1CCC(n2cc3c(nc2=O)Nc2cc(C4CCNCC4)ccc2O3)CC1 (centres unmarked) [Compound 1369] | > 16 µg/mL
NCCCN(CCCN)CC1CCC(n2cc3c(nc2=O)Nc2cc(C4CCNCC4)ccc2O3)CC1 (centres unmarked) [Compound 1370] | < 16 µg/mL

SMILES | MIC
CN(C)CCCOc1cccc2c1Nc1nc(=O)n(C3CCC(CN)CC3)cc1O2 (centres unmarked) [Compound 1421] | > 16 µg/mL
CC(=O)NCCOc1cccc2c1Nc1nc(=O)n(C3CCC(CN)CC3)cc1O2 (centres unmarked) [Compound 1426] | > 16 µg/mL
NCCOc1cccc2c1Nc1nc(=O)n([C@H]3CC[C@H](CN)CC3)cc1O2 [Compound 1427] | > 16 µg/mL
NC[C@H]1CC[C@H](n2cc3c(nc2=O)Nc2c(OCCCN4CCNCC4)cccc2O3)CC1 [Compound 1441] | > 16 µg/mL
NCCCOc1cccc2c1Nc1nc(=O)n([C@H]3CC[C@H](CN)CC3)cc1O2 [Compound 1449] | > 16 µg/mL
NC[C@H]1CC[C@H](n2cc3c(nc2=O)Nc2c(OCCCCl)cccc2O3)CC1 [Compound 1450] | > 16 µg/mL
NC[C@H]1CC[C@H](n2cc3c(nc2=O)Nc2c(OCc4ccccc4)cccc2O3)CC1 [Compound 1467] | > 16 µg/mL
COc1cccc2c1Nc1nc(=O)n([C@H]3CC[C@H](CN)CC3)cc1O2 [Compound 4000c] | > 16 µg/mL
NC[C@H]1CC[C@H](n2cc3c(nc2=O)Nc2c(OCCNC(N)=O)cccc2O3)CC1 [Compound 4001c] | > 16 µg/mL
NC[C@H]1CC[C@H](n2cc3c(nc2=O)Nc2c(OCCNC(=O)NCc4ccccc4)cccc2O3)CC1 [Compound 4002c] | > 16 µg/mL
NC[C@H]1CC[C@H](n2cc3c(nc2=O)Nc2c(OCCCOCc4ccccc4)cccc2O3)CC1 [Compound 4003c] | > 16 µg/mL
N=C(N)NCCCN[C@H]1CC[C@H](n2cc3c(nc2=O)Nc2c(OCCN)cccc2O3)CC1 [Compound 4004c] | < 16 µg/mL
NCCOc1cccc2c1Nc1nc(=O)n([C@H]3CC[C@H](N)CC3)cc1O2 [Compound 4005c] | > 16 µg/mL
N=C(N)NCCCNC(=O)[C@H]1CC[C@H](n2cc3c(nc2=O)Nc2c(OCCN)cccc2O3)CC1 [Compound 4006c] | < 16 µg/mL
NCCCNC(=O)[C@H]1CC[C@H](n2cc3c(nc2=O)Nc2c(OCCN)cccc2O3)CC1 [Compound 4007c] | > 16 µg/mL
N=C(N)NCCCNC(=O)[C@H]1CC[C@H](n2cc3c(nc2=O)Nc2c(CCCN)cccc2O3)CC1 [Compound 4008c] | > 16 µg/mL
